According to US7067619B2, “Integrin-binding peptides” (La Jolla Cancer Research Foundation, priority 1993, dated 2006):
Bridge positions count the residues as written; N and C are the ends. Ends that are not written are not given here. Peptide text beside a SMILES is read from it.

What was measured:
αvβ3 integrin = αvβ3 integrin (Homo sapiens, UniProt P05106+P06756); test: Inhibition of αvβ3-mediated attachment of IMR-90 cells to vitronectin; format: cell-based; design: endogenous in cells; host or cells: IMR-90 cells
Chain of αvβ3 integrin (P06756 31-889 limits assumed): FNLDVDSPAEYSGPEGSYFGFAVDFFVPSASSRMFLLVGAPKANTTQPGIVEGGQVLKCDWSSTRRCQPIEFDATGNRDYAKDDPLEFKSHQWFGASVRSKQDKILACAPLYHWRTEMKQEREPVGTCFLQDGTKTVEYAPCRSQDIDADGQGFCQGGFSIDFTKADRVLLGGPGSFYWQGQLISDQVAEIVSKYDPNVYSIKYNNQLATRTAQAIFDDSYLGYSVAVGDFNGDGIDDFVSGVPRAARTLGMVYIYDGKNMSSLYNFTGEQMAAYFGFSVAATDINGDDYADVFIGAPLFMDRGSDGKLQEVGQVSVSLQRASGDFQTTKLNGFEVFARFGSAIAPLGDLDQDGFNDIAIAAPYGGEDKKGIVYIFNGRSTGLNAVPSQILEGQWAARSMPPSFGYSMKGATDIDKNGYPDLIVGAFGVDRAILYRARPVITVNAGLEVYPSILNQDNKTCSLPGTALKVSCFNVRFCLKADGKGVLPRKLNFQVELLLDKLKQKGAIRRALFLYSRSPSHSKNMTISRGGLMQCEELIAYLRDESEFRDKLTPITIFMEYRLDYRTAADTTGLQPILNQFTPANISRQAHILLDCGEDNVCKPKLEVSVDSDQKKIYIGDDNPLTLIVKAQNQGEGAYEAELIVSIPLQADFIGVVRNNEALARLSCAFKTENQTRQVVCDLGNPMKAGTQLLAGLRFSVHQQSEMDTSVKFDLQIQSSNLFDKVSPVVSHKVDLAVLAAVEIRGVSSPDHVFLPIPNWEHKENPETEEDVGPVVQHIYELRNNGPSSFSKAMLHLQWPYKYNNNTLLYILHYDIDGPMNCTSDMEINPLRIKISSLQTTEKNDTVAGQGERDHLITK
Chain of αvβ3 integrin (P06756 891-1048 partner limits assumed): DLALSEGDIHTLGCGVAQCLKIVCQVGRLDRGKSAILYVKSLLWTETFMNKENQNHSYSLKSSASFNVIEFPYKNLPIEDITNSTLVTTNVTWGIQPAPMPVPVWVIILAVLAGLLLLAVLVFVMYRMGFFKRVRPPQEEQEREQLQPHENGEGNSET
Chain of αvβ3 integrin (P05106 27-788): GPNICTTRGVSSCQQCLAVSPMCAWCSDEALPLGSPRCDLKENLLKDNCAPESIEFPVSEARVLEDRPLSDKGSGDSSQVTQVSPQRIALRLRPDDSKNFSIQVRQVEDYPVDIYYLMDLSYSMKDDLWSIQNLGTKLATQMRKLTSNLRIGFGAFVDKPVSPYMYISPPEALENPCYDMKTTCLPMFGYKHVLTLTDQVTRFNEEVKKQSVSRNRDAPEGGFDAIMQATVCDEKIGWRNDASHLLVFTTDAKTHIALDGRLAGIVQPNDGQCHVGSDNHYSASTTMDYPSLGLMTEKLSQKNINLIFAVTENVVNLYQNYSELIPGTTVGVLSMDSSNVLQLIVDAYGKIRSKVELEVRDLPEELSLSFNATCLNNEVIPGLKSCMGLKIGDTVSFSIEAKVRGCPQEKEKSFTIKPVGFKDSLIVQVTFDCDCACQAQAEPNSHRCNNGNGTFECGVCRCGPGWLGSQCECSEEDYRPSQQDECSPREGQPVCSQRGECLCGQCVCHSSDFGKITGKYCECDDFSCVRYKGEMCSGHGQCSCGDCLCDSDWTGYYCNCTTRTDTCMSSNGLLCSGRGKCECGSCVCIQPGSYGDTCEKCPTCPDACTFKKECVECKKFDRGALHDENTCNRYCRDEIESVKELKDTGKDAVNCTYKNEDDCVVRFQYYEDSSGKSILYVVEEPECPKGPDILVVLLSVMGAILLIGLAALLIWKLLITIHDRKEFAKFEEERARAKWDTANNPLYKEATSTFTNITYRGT
Protocol: FIG. 13—[…] attachment of IMR-90 cells to vitronectin. The cells that bound were determined as described herein.
(§1) Cell lines expressing different integrins were used to examine peptide inhibition of integrin function. A human melanoma cell line, C8161, a fibroblast cell line, WI-38, and an osteosarcoma cell line, MG-63 (described by Seftor et al., Canc. Res., 53:3411–3415 (1993); Vogel et al., J. Biol. Chem., 265:5934–5937 (1990); and Pytela et al. (1985), supra, respectively, each of which is incorporated herein by reference) attach to fibronectin through α5β1 integrin, as does B2/α27, a CHO cell line transfected with human α5. B2/C1, the control parental CHO line (Bauer et al., J. Cell. Biol. 116:477–487 (1992), which is incorporated herein by reference), attaches via […]. CHO cells C11 and NIH 3T3 cells express the endogenous Chinese hamster and mouse α5β1 integrins, respectively. The human melanoma cells, A375-M, attach to fibronectin through both α5β1 and α4β1 integrins (Mould et al., J. Biol. Chem. 265:4020–4024 (1990), which is incorporated herein by reference). […]
(§2) Cell lines expressing fibronectin-binding integrins were used to determine peptide activities against these integrins in the cell attachment assay described by Ruoslahti et al., Meth. […] Bound cells were quantitated by staining with 0.1% amido black.

αvβ5 integrin [1] = biological target: T1, αvβ5 integrin (Homo sapiens, UniProt P06756+P18084); test: Inhibition of αvβ5-mediated cell attachment to vitronectin; format: cell-based; design: αvβ5-mediated attachment of HT-29 cells to vitronectin; endogenous in cells; host or cells: HT-29 cells; UCLA-P3 cells
T1 sequence (P06756 31-889 limits assumed): as the sequence (P06756 31-889 limits assumed) above
T1 sequence (P06756 891-1048 partner limits assumed): as the sequence (P06756 891-1048 partner limits assumed) above
T1 sequence (P18084 24-799): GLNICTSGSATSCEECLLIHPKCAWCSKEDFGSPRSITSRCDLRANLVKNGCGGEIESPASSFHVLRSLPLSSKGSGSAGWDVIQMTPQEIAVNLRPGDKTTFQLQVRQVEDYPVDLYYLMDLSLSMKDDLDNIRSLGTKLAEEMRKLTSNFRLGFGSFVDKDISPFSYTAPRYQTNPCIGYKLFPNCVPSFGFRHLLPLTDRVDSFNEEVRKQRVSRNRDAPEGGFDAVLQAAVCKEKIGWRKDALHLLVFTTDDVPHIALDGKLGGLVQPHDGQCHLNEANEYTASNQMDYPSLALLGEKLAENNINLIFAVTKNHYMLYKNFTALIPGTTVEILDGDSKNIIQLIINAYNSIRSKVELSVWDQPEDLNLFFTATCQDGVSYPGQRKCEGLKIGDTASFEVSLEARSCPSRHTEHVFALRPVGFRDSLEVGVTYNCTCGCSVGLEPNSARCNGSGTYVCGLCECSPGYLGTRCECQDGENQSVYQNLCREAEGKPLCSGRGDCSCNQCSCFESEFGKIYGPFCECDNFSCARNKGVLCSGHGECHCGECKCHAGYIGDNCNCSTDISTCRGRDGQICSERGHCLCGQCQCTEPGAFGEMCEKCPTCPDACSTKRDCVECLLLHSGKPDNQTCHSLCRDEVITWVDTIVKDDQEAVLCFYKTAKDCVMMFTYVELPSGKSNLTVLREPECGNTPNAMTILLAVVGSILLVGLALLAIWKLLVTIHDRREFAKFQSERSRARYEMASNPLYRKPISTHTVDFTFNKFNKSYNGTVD
Text: FIG. 12—αvβ5-mediated attachment of HT-29 cells to vitronectin.
Cell lines expressing different integrins were used to examine peptide inhibition of integrin function. A human melanoma cell line, C8161, a fibroblast cell line, WI-38, and an osteosarcoma cell line, MG-63 (described by Seftor et al., Canc. Res., 53:3411–3415 (1993); Vogel et al., J. Biol. Chem., 265:5934–5937 (1990); and Pytela et al. (1985), supra, respectively, each of which is incorporated herein by reference) attach to fibronectin through α5β1 integrin, as does B2/α27, a CHO cell line transfected with human α5. B2/C1, the control parental CHO line (Bauer et al., J. Cell. Biol. 116:477–487 (1992), which is incorporated herein by reference), attaches via […]. CHO cells C11 and NIH 3T3 cells express the endogenous Chinese hamster and mouse α5β1 integrins, respectively. The human melanoma cells, A375-M, attach to fibronectin through both α5β1 and α4β1 integrins (Mould et al., J. Biol. Chem. 265:4020–4024 (1990), which is incorporated herein by reference). CHO cell line B2/v7 express the αvβ1 integrin (Zhang et al., J. Cell. Biol. 122:235–242 (1993), which is incorporated herein by reference). The vitronectin-binding integrins […] and αvβ3 were assayed using the cell line HT-29 and IMR-90, respectively (Koivunen et al., J. Biol. Chem. 268: 20205–20210 (1993)).
Cell lines expressing fibronectin-binding integrins were used to determine peptide activities against these integrins in the cell attachment assay described by Ruoslahti et al., Meth. Enzymol., 144:803–831 (1982), which is incorporated herein by reference. Human plasma fibronectin was iodinated as described by Morla and Ruoslahti, J. Cell Biol., 118:421–429 (1992), which is incorporated herein by reference. Vitronectin was obtained from Telios Pharmaceuticals (San Diego, Calif.). […] Peptide was coated on plastic by incubating at 37° C. for 2 hours in phosphate buffered saline containing 0.25% glutaraldehyde to crosslink the peptide. Free binding sites on the plastic were blocked using BSA. Approximately 1×10^5 cells per well were allowed to attach for 1 hour in the presence or absence of competing peptides. Bound cells were quantitated by staining with 0.1% amido black.
Inhibition of cell attachment mediated by either fibronectin- or vitronectin-binding integrins was performed to determine peptide specificity in a biologically relevant system. The assays and cell lines were performed as described above. FIGS. 5 and 6 show the results of cell attachment mediated by the fibronectin binding integrins α5β1 and αvβ1.

αvβ5 integrin [2] = biological target: T1, αvβ5 integrin; test: Inhibition of peptide-displaying phage binding to αvβ5 integrin by synthetic peptides; design: The αvβ3, αvβ5 and α5β1 integrins were isolated from human placental extracts; from tissue; host or cells: human placenta; details: more potent than *CRGDC*; FIG. 10
Protocol: Phage containing the […] [SEQ ID NO:10] sequence were incubated for 1 hour in integrin-coated wells in the presence of the competing peptides or dimethyl sulfoxide solvent as a control. The bound phage were determined as described herein.
In addition, most of the phage-binding activity in the αvβ3 preparation was captured into microliter wells coated with antibodies against the αv or β3 subunits as described previously (Koivunen et al., J. Biol. Chem., 268:20205–10 (1993). The αIIbβ3 integrin was isolated from outdated platelets (Pytela et al., Science, 231:1559–1562 (1986)).
Binding of individual cloned phage to integrins was studied in microliter wells as described in Koivunen et al., J. Cell. Biol., 124:373–380 (1994). Phage binding to α5β1 and αvβ3 were assayed in TBS buffer containing 1% BSA and 1 mM MnCl2 and binding to αvβ5 in the presence of 1 mM CaCl2. Phage that were bound were determined by their ability to infect F-pilus positive K91kan bacteria. Bacteria were grown overnight in microliter wells in the presence of tetracycline and the absorbance indicative of bacterial growth was read at 600 nm with an ELISA plate reader.

α5β1 integrin = biological target: T2, α5β1 integrin (Mus musculus, UniProt P09055+P11688); test: Inhibition of attachment of NIH 3T3 cells to fibronectin; format: cell-based; details: mouse NIH 3T3 cells
T2 construct: CHO cells C11 and NIH 3T3 cells express the endogenous Chinese hamster and mouse α5β1 integrins, respectively; endogenous in cells; host or cells: NIH 3T3 cells
T2 sequence (P11688 45-898 limits assumed): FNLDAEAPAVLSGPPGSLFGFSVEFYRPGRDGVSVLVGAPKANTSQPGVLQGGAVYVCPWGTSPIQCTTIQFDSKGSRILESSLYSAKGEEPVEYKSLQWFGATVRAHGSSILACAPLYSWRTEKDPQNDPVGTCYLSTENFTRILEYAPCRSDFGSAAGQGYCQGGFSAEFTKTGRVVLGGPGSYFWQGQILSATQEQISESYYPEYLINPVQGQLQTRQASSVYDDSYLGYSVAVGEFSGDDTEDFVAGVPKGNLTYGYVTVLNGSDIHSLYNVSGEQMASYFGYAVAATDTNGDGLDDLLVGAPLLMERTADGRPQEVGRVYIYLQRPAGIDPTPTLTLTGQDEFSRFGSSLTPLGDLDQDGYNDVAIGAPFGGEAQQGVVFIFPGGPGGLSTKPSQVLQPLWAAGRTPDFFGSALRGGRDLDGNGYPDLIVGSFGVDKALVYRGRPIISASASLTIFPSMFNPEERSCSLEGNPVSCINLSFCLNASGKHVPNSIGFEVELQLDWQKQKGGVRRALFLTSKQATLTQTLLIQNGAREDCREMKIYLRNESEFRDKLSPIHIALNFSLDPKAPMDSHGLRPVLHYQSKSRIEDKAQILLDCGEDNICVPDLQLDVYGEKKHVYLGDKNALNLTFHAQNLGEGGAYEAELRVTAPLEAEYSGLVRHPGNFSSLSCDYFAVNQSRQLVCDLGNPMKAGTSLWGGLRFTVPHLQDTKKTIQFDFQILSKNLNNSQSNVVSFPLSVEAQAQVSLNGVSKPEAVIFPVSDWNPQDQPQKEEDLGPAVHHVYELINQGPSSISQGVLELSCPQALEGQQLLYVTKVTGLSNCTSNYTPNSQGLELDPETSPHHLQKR
T2 sequence (P11688 899-1053 partner limits assumed): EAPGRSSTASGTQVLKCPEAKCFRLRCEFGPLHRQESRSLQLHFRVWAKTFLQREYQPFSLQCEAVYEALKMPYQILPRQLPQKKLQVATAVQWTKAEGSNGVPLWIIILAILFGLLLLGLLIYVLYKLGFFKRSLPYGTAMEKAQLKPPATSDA
T2 sequence (P09055 21-798): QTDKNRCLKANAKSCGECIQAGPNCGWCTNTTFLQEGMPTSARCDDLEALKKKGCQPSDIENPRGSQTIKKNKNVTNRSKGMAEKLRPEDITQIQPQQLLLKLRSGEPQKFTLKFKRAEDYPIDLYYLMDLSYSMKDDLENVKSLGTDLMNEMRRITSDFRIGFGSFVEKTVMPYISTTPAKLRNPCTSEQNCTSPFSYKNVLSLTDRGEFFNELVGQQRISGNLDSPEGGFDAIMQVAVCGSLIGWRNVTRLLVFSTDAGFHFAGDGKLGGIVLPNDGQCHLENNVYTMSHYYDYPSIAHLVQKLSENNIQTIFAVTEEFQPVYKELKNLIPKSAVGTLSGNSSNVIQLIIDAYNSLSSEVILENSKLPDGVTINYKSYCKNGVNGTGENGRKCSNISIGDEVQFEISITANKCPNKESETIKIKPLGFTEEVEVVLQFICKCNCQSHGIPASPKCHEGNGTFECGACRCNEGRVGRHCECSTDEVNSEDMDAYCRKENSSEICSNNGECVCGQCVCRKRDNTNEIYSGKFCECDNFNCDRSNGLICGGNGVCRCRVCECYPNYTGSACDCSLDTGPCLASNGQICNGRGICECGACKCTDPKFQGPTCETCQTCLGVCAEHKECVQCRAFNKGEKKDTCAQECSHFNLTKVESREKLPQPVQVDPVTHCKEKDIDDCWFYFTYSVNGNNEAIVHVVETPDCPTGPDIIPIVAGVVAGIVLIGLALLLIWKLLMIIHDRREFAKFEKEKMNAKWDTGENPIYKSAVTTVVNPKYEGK
Text: as §1, with “reference). CHO cell line B2/v7 express the αvβ1 integrin (Zhang et al., J. Cell. Biol. 122:235–242 (1993), which is incorporated herein by reference).” for “reference).”
as §2

## C[C@H](N)C(=O)N[C@H]1CSSC[C@@H](C(=O)NCC(=O)O)NC(=O)[C@H](Cc2ccccc2)NC(=O)[C@@H]2CSSC[C@H](NC(=O)[C@H](CC(=O)O)NC1=O)C(=O)N[C@@H](CCCNC(=N)N)C(=O)NCC(=O)N[C@@H](CC(=O)O)C(=O)N2 (H-ACDCRGDCFCG-OH; disulfide 2-10, 4-8)
αvβ3 integrin; more effective than *CRGDC*
  effectiveness relative to *CRGDC* in IMR-90 attachment to vitronectin: 20 fold
αvβ5 integrin [1]; HT-29 cells, higher than *CRGDC*
  affinity relative to *CRGDC* in HT-29 attachment to vitronectin: 40 fold
αvβ5 integrin [1]; HT-29 cells, higher than A*CRGDGWC*G
  affinity relative to A*CRGDGWC*G in HT-29 attachment to vitronectin: 40 fold
αvβ5 integrin [1]; UCLA-P3 cells
  enhancement in activity relative to *CRGDC* in UCLA-P3 cells: 20 fold
αvβ5 integrin [2]
  potency in inhibiting binding of RGD-containing phage to αvβ5 relative to *CRGDC*: 10 fold

## GACRRETAWACGA
α5β1 integrin
  blocking of attachment of NIH 3T3 cells to fibronectin: could not block
αvβ5 integrin [1]; all concentrations tested, FIG. 7 (sentence prints αvβ1)
  activity against cell attachment to vitronectin: essentially devoid of activity

## A*CPSRLDSPC*G (ACPSRLDSPCG; disulfide 2-10 (inferred))
αvβ3 integrin; vitronectin
  concentration at which inhibitory activity was shown: higher than 1 mM
